Assays:
human STING (WT) [1] = molecular target: T1, human STING (WT) (Homo sapiens (Human), UniProt Q86WV6, H232R); assay: Surface Plasmon Resonance (SPR), STING (WT); conditions: read-out: SPR (WT) KD; biotinylated STING on streptavidin chip, 8° C.
human STING (WT) [2] = molecular target: T1, human STING (WT); assay: Differential scanning fluorimetry (DSF), huSTING (WT); type: binding; conditions: compound 100 μM, 2 μM protein, Tm with ligand minus Tm of protein alone (1% DMSO)
Description: (§1) Data were analyzed using “Meltdown analysis” protocol described by Rosa (2015).

human STING (HAQ) [3] = molecular target: T2, human STING (HAQ) (Homo sapiens (Human), UniProt Q86WV6, G230A/H232R/R293Q); assay: Differential scanning fluorimetry (DSF), huSTING (HAQ); type: binding; conditions: compound 100 μM, 2 μM protein, Tm with ligand minus Tm of protein alone (1% DMSO)
T2 sequence (Q86WV6 149-345 G230A/H232R/R293Q): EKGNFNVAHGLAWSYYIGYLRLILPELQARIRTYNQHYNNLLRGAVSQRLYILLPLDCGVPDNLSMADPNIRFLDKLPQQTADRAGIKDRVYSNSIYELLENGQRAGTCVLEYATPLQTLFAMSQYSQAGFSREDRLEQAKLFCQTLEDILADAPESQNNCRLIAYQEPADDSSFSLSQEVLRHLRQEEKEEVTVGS
Description: as §1

human STING (HAQ) [4] = molecular target: T2, human STING (HAQ); assay: Surface Plasmon Resonance (SPR), STING (HAQ); conditions: read-out: SPR (HAQ) KD; biotinylated STING on streptavidin chip, 8° C.
WT human STING isoform = WT human STING isoform (Homo sapiens (Human), UniProt Q86WV6, H232R); assay: THP-1-Dual KI-hSTING-R232 reporter cell line assay; type: cell-based; conditions: 24 h incubation, luminescence, normalized to ML RR-S2 CDA 40 μM; read-out: EC50 THP-1 Dual KI-hSTING-R232 cells
Chain of WT human STING isoform (Q86WV6 whole entry H232R, canonical isoform): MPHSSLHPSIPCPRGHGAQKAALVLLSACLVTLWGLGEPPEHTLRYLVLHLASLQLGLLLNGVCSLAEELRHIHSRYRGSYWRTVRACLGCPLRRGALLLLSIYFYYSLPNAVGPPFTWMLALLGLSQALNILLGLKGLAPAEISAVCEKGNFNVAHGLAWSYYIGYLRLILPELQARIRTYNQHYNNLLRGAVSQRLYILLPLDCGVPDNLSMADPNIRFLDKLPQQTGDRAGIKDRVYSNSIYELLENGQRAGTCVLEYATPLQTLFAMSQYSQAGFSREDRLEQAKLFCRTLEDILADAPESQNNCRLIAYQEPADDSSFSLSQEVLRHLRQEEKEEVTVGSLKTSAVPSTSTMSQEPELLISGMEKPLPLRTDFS
Description: (§2) THP-1 STING Lucia ISG cells (InvivoGen #thpl-isg) were cultured in RPMI-1640 containing 2 mM L-glutamine, 25 mM HEPES, 100 μg/mL Normocin (InvivoGen) and 10% heat-inactivated FBS. Cells were seeded at a density of 7×10^5 cells/mL, maintained at 37° C./5% CO2, and passaged every 3-4 days. Selection pressure was maintained by the addition of 100 μg/mL Zeocin every second passage.
(§3) Assay conditions: cells were harvested and resuspended at a concentration of 5×10^5 cells/mL in fresh growth media. Of this cell preparation 20 μL per well was dispensed into 384 well cell culture plates (Greiner, #781098X) and incubated at 37° C./5% CO2 for 2 hours.
(§4) Concentration Response Curves (commonly 11 doses) were prepared by 2.5 fold serial dilution starting from 10 mM compound stock solution in DMSO. Compound dilutions were transferred into the cell culture plates using a pintool (0.1 μL transfer), control wells were matched for DMSO. Positive control wells received ML RR-S2 CDA (Med Chem Express HY12885B) in 5 μL of media to a final concentration of 40 μM. All other wells received additional 5 μL of media only to equalize volume. The plates were incubated for 24 h at 37° C./5% CO2.
(§5) For the detection step, QUANTI-Luc (InvivoGen #rep-qlc1) was prepared according to manufacturer's instruction and 10 μL were added per well to the culture plates. Plates were shaken for ten seconds on an orbital shaker and left in the dark at room temperature for two minutes, before luminescence was read on a Perkin Elmer Envision plate reader.
(§6) Data analysis: Luminescence raw data was normalized % activity relative to the signal of the positive control wells and negative control wells which were not treated with compound. The following formula was used to calculate normalized % activity from raw signals: % activity=(sample−negative)/(positive−negative)
(§7) The THP-1 STING Lucia ISG cell EC50 provides an assessment of activity at the human HAQ isoform of STING. For assessing compound activity against the WT human STING isoform, an equivalent method was conducted where the cells used were THP-1-Dual KI-hSTING-R232 (InvivoGen #thpd-r232).

[5] = molecular target: human HAQ isoform of STING (Homo sapiens (Human), UniProt Q86WV6, G230A/H232R/R293Q/R71H); assay: THP-1 STING Lucia ISG reporter cell line assay; type: cell-based; conditions: 24 h incubation, luminescence, normalized to ML RR-S2 CDA 40 μM; read-out: EC50 THP-I STING Lucia ISG cells
Chain of human HAQ isoform of STING (Q86WV6 whole entry R71H/G230A/H232R/R293Q, canonical isoform): as the sequence (Q86WV6 whole entry H232R, canonical isoform) above, with R71H, G230A, R293Q counted along it
Description: as §2, §3, §4, §5, §6, §7

T1 sequence (Q86WV6 149-345 H232R): as the sequence (Q86WV6 149-345 G230A/H232R/R293Q) above, with A82G, Q145R counted along it

| SMILES | Kd (human STING (WT) [1]) | DSF huSTING (WT) ΔTm (human STING (WT) [2]) | ΔTm at 100 µM (human STING (HAQ) [3]) | Kd (human STING (HAQ) [4]) | EC50 (WT human STING isoform) | EC50 [5] | DSF huSTING (HAQ) ΔTm (human STING (HAQ) [3]) | ΔTm at 100 µM (human STING (WT) [2]) |
| --- | --- | --- | --- | --- | --- | --- | --- | --- |
| COc1cccc2sc(C(=O)O)c(-c3nc4cc(C(N)=O)ccc4n3CCn3c(-c4c(C(=O)O)sc5cccc(OC)c45)nc4cc(C(N)=O)ccc43)c12 (single isomer, unassigned) [Example 5.2, 3,3′-(Ethane-1,2-diylbis(5-carbamoyl-1H-benzo[d]imidazole-1,2-diyl))bis(4-methoxybenzo[b]thiophene-2-carboxylic acid)] | 122 nM | 19.17 °C | 30.9 °C | 1.4 nM | 489 nM | 1660 nM |  |  |
| COc1ccc(F)c2sc(C(=O)O)c(-c3nc4cc(C(N)=O)ccc4n3CCn3c(-c4c(C(=O)O)sc5c(F)ccc(OC)c45)nc4cc(C(N)=O)ccc43)c12 (single isomer, unassigned) [Example 13.1, 3,3′-(Ethane-1,2-diylbis(5-carbamoyl-1H-benzo[d]imidazole-1,2-diyl))bis(7-fluoro-4-methoxybenzo[b]thiophene-2-carboxylic acid)] | 300 nM | 18.17 °C |  | 4 nM | 3750 nM | 8310 nM | 31.23 °C |  |
| CCOC(=O)c1sc2cccc(Cl)c2c1-c1nc2cc(C(N)=O)ccc2n1CCn1c(-c2c(C(=O)OCC)sc3cccc(Cl)c23)nc2cc(C(N)=O)ccc21 [Example A1, Diethyl 3,3′-(ethane-1,2-diylbis(5-carbamoyl-1H-benzo[d]imidazole-1,2-diyl))bis(4-chlorobenzo[b]thiophene-2-carboxylate)] | 16000 nM |  | 0.36 °C | 14900 nM | 12000 nM | 18400 nM |  | 1.84 °C |
| NC(=O)c1ccc2c(c1)nc(-c1c(C(=O)O)sc3cccc(Cl)c13)n2CCCCn1c(-c2c(C(=O)O)sc3cccc(Cl)c23)nc2cc(C(N)=O)ccc21 [Example 3, 3,3′-(Butane-1,4-diylbis(5-carbamoyl-1H-benzo[d]imidazole-1,2-diyl))bis(4-chlorobenzo[b]thiophene-2-carboxylic acid)] | 6300 nM |  | -0.55 °C | 5060 nM | > 40000 nM | > 40000 nM |  | -1.83 °C |
| NC(=O)c1ccc2c(c1)nc(-c1c(C(=O)O)sc3cccc(Br)c13)n2CCn1c(-c2c(C(=O)O)sc3cccc(Br)c23)nc2cc(C(N)=O)ccc21 (single isomer, unassigned) [Example 11.1, 3,3′-(Ethane-1,2-diylbis(5-carbamoyl-1H-benzo[d]imidazole-1,2-diyl))bis(4-bromobenzo[b]thiophene-2-carboxylic acid)] | 63 nM | 17.83 °C |  | 1.64 nM | 172 nM | 182 nM | 31.05 °C |  |
| NC(=O)c1ccc2c(c1)nc(-c1c(C(=O)O)sc3c(F)ccc(Br)c13)n2CCn1c(-c2c(C(=O)O)sc3c(F)ccc(Br)c23)nc2cc(C(N)=O)ccc21 (single isomer, unassigned) [Example 20.1, 3,3′-(Ethane-1,2-diylbis(5-carbamoyl-1H-benzo[d]imidazole-1,2-diyl))bis(4-bromo-7-fluorobenzo[b]thiophene-2-carboxylic acid)] | 16 nM | 22.71 °C |  | 1.65 nM | 632 nM | 1580 nM | 31.76 °C |  |
| NC(=O)c1ccc2c(c1)nc(-c1c(C(=O)O)sc3c(F)ccc(Cl)c13)n2CCn1c(-c2c(C(=O)O)sc3c(F)ccc(Cl)c23)nc2cc(C(N)=O)ccc21 (single isomer, unassigned) [Example 2.2, 3,3′-(Ethane-1,2-diylbis(5-carbamoyl-1H-benzo[d]imidazole-1,2-diyl))bis(4-chloro-7-fluorobenzo[b]thiophene-2-carboxylic acid)] |  | 8.85 °C |  | 124 nM | 4300 nM | 8320 nM | 22.2 °C |  |
| NC(=O)c1ccc2c(c1)nc(-c1c(C(=O)O)sc3cccc(Cl)c13)n2CCn1c(-c2c(C(=O)O)sc3cccc(Cl)c23)nc2cc(C(N)=O)ccc21 (single isomer, unassigned) [Example 1.1, 3,3′-(Ethane-1,2-diylbis(5-carbamoyl-1H-benzo[d]imidazole-1,2-diyl))bis(4-chlorobenzo[b]thiophene-2-carboxylic acid)] | 119 nM | 19.9 °C |  | 1.7 nM | 271 nM | 681 nM | 31.8 °C |  |
| NC(=O)c1ccc2c(c1)nc(-c1c(C(=O)O)sc3ccccc13)n2CCn1c(-c2c(C(=O)O)sc3ccccc23)nc2cc(C(N)=O)ccc21 [Example 9, 3,3′-(Ethane-1,2-diylbis(5-carbamoyl-1H-benzo[d]imidazole-1,2-diyl))bis(benzo[b]thiophene-2-carboxylic acid)] |  |  | 6.7 °C | 10100 nM | 3650 nM | > 40000 nM |  | 2.36 °C |
| NC(=O)c1ccc2c(c1)nc(-c1c(C(=O)O)sc3cccc(Br)c13)n2CCn1c(-c2c(C(=O)O)sc3cccc(Br)c23)nc2cc(C(N)=O)ccc21 (single isomer, unassigned) [Example 11.2, 3,3′-(Ethane-1,2-diylbis(5-carbamoyl-1H-benzo[d]imidazole-1,2-diyl))bis(4-bromobenzo[b]thiophene-2-carboxylic acid)] | 1430 nM | −5.12 °C |  |  | 2830 nM | 5480 nM | −1.75 °C |  |
| Cc1cccc2sc(C(=O)O)c(-c3nc4cc(C(N)=O)ccc4n3CCn3c(-c4c(C(=O)O)sc5cccc(C)c45)nc4cc(C(N)=O)ccc43)c12 (single isomer, unassigned) [Example 15.1, 3,3′-(Ethane-1,2-diylbis(5-carbamoyl-1H-benzo[d]imidazole-1,2-diyl))bis(4-methylbenzo[b]thiophene-2-carboxylic acid)] | 430 nM |  | 24.6 °C |  | 1010 nM | 1540 nM |  | 10.5 °C |
| CCOc1cccc2sc(C(=O)O)c(-c3nc4cc(C(N)=O)ccc4n3CCn3c(-c4c(C(=O)O)sc5cccc(OCC)c45)nc4cc(C(N)=O)ccc43)c12 [Example 24, 3,3′-(Ethane-1,2-diylbis(5-carbamoyl-1H-benzo[d]imidazole-1,2-diyl))bis(4-ethoxybenzo[b]thiophene-2-carboxylic acid)] |  |  | 3.15 °C | 37000 nM | > 40000 nM | > 40000 nM |  | -0.39 °C |
| N#Cc1cccc2sc(C(=O)O)c(-c3nc4cc(C(N)=O)ccc4n3CCn3c(-c4c(C(=O)O)sc5cccc(C#N)c45)nc4cc(C(N)=O)ccc43)c12 [Example 17, 3,3′-(Ethane-1,2-diylbis(5-carbamoyl-1H-benzo[d]imidazole-1,2-diyl))bis(4-cyanobenzo[b]thiophene-2-carboxylic acid)] |  |  | 3.27 °C | 38000 nM | 9400 nM | 14900 nM |  | -2.58 °C |
| COc1ccc(F)c2sc(C(=O)O)c(-c3nc4cc(C(N)=O)ccc4n3CCn3c(-c4c(C(=O)O)sc5c(F)ccc(OC)c45)nc4cc(C(N)=O)ccc43)c12 (single isomer, unassigned) [Example 13.2, 3,3′-(Ethane-1,2-diylbis(5-carbamoyl-1H-benzo[d]imidazole-1,2-diyl))bis(7-fluoro-4-methoxybenzo[b]thiophene-2-carboxylic acid)] | 2370 nM | −1.43 °C |  |  | > 40000 nM | > 40000 nM | 0.89 °C |  |
